Key:
[1] = Acute toxicity by intravenous route to rats; format: in vivo; details: rat, in vivo, oxalate acid form except those marked (hydrochloride)
Method: (§1) Acute toxicity tests were carried out on rats and mice. The following results were registered in comparison with butoprozine. The compounds of the invention were used in oxalate acid form except those marked (x) which were tested in hydrochloride form.

[2] = tested on: blood-flow to the myocardium; assay: Effect on blood-flow to the myocardium, anaesthetized dogs, intravenous; format: in vivo, dog
Method: It was undertaken on anaesthetized dogs which received the substance under study by intravenous route. The intensity of the maximum effect on blood-flow to the myocardium was expressed in percentage of the corresponding value before injection. The time required for the maximum effect to decrease by 50% represented the duration of the effect. This time was measured in minutes.

[3] = tested on: epinephrine-accelerated heart rate (anti-β effect); assay: Antiadrenergic effect: anti-β effect (reduction of epinephrine-accelerated heart rate); format: in vivo; details: dog; for inhibition in vivo at 5 mg/kg: dose 5 mg/kg i.v.
Method: (§2) The purpose of this test was to determine the capacity of the compounds under study to reduce epinephrine-increased blood-pressure (anti-α effect) and epinephrine-accelerated heart rate (anti-β effect) in the dog previously anaesthetized with pentobarbital and atropinized.
(§3) For each dog, the dose of epinephrine was first determined which provoked a reproductible increase by about 100 mm. Hg in the arterial pressure (between 5 and 10 μg/kg). After that, the dose of epinephrine so determined was administered followed by a dose by intravenous route of the compound to be studied. The percentage of reduction of the hypertension provoked by the compound under study in comparison with the hypertension previously obtained (about 100 mm. Hg) was then registered.
(§4) The percentage of reduction of the epinephrine-induced acceleration of heart-rate produced by the compound under study in comparison with the tachycardia previously measured (about 70 beats) was then registered. In both cases, the results were expressed as follows: […]
(§5) + for a <50%-reduction of the increase in pressure or cardiac frequency
(§6) ++ for a ≥50%-reduction of the increase in pressure or cardiac frequency
(§7) +++ for a subtotal reduction of the increase in pressure or cardiac frequency

[4] = tested on: epinephrine-increased blood-pressure (anti-α effect); assay: Antiadrenergic effect: anti-α effect (reduction of epinephrine-increased blood-pressure); format: in vivo; details: dog
Method: as §2, §3, §4, §5, §6, §7

[5] = tested on: ventricular fibrillation; assay: Anti-arrhythmic properties, LAWSON test (chloroform-provoked arrhythmia), intragastric; format: in vivo; details: Mus musculus, po, mice, read-out: AD50 (dose protecting 50% of the animals against ventricular fibrillation)
Method: The arrhythmia was provoked by making the animals inhale chloroform to total asphyxia and by later observing the ventricular rhythm. The dose of compound protecting 50% of the animals against ventricular fibrillation i.e. the AD50 was then recorded.

[6] = Acute toxicity by intravenous route to mice; details: mouse, in vivo, oxalate acid form except those marked (hydrochloride)
Method: as §1

[7] = Canis lupus familiaris, iv, dose 10 mg/kg i.v., anaesthetized dog, read-out: Max. increase (blood-flow to the myocardium)
[8] = dose 10 mg/kg i.v., anaesthetized dog
[9] = Canis lupus familiaris, iv, dose 10 mg/kg i.v.
[10] = Canis lupus familiaris, iv, dose 5 mg/kg i.v., anaesthetized dog, read-out: Max. increase (blood-flow to the myocardium)
[11] = dose 5 mg/kg i.v., anaesthetized dog

CCCCN(CCCC)CCCOc1ccc(C(=O)c2c(-c3ccccc3)c(Br)c3ccccn23)cc1Cl.Cl [(*)Br/Cl/H/drawing 49/n-C4H9/3, 1-Bromo-2-phenyl-3-[4-(3-di-n-butylaminopropyl)-oxy-3-chloro-benzoyl]-indolizine hydrochloride]
LD50 [1]: > 100 mg/kg

CCCCN(CCCC)CCCOc1ccc(C(=O)c2c(CC)cc3ccccn23)cc1Cl.Cl [(*)H/Cl/H/C2H5/n-C4H9/3, 2-Ethyl-3-[4-(3-di-n-butylaminopropyl)-oxy-3-chloro-benzoyl]-indolizine hydrochloride]
LD50 [1]: 65 mg/kg

CCCCc1oc2ccccc2c1C(=O)c1cc(I)c(OCCN(CC)CC)c(I)c1 [Amiodarone, reference compound]
change in vivo at 10 mg/kg [2, 7]: 36%
Coronarodilating effect / blood-flow to the myocardium, in words ([2]; comparative): cannot be regarded as a coronarodilator
Time required to decrease to 50% (duration of effect) [2, 8]: 7 min
inhibition in vivo at 10 mg/kg [3, 9]: > 50%
inhibition in vivo at 10 mg/kg [4, 9]: > 50%

CCCCN(CCCC)CCCOc1ccc(C(=O)c2c(CC)c(Br)c3ccccn23)cc1Br [Br/Br/H/C2H5/n-C4H9/3, 1-Bromo-2-ethyl-3-[4-(3-di-n-butylaminopropyl)-oxy-3-bromo-benzoyl]-indolizine]
change in vivo at 10 mg/kg [2, 7]: 60%
Time required to decrease to 50% (duration of effect) [2, 8]: 90 min
Anti-β effect ([3]; dose 10 mg/kg i.v.): +++
Anti-α effect ([4]; dose 10 mg/kg i.v.): +++

CCCCN(CCCC)CCCOc1c(C)cc(C(=O)c2c(C)c(Br)c3ccccn23)cc1C [Br/CH3/CH3/CH3/n-C4H9/3, 1-Bromo-2-methyl-3-[4-(3-di-n-butylaminopropyl)-oxy-3,5-dimethyl-benzoyl]-indolizine]
inhibition in vivo at 10 mg/kg [3, 9]: > 50%
Anti-α effect ([4]; dose 10 mg/kg i.v.): +++
ED50 [5]: < 100 mg/kg

CCCCN(CCCC)CCCOc1ccc(C(=O)c2c(CCC)c(Br)c3ccccn23)cc1Cl [Br/Cl/H/n-C3H7/n-C4H9/3, 1-Bromo-2-n-propyl-3-[4-(3-di-n-butylaminopropyl)-oxy-3-chloro-benzoyl]-indolizine]
change in vivo at 2.5 mg/kg ([2]; Canis lupus familiaris, iv, dose 2.5 mg/kg i.v., anaesthetized dog, read-out: Max. increase (blood-flow to the myocardium)): 50%
Time required to decrease to 50% (duration of effect) ([2]; dose 2.5 mg/kg i.v., anaesthetized dog): 60 min
Anti-β effect ([3]; dose 10 mg/kg i.v.): +++
Anti-α effect ([4]; dose 10 mg/kg i.v.): +++

CCCCc1c(Br)c2ccccn2c1C(=O)c1ccc(OCCCN(CCC)CCC)c(Cl)c1 [Br/Cl/H/n-C4H9/n-C3H7/3, 1-Bromo-2-n-butyl-3-[4-(3-di-n-propylaminopropyl)-oxy-3-chloro-benzoyl]-indolizine]
change in vivo at 10 mg/kg [2, 7]: 40%
Time required to decrease to 50% (duration of effect) [2, 8]: 90 min
inhibition in vivo at 10 mg/kg [3, 9]: < 50%
inhibition in vivo at 10 mg/kg [4, 9]: > 50%

CCCCc1c(C)c2ccccn2c1C(=O)c1ccc(OCCCN(CCC)CCC)c(Br)c1 [CH3/Br/H/n-C4H9/n-C3H7/3, 1-Methyl-2-n-butyl-3-[4-(3-di-n-propylaminopropyl)-oxy-3-bromo-benzoyl]-indolizine]
LD50 [6]: 50 mg/kg

CCCN(CCC)CCCOc1ccc(C(=O)c2c(CC)c(Cl)c3ccccn23)cc1Cl [Cl/Cl/H/C2H5/n-C3H7/3, 1-Chloro-2-ethyl-3-[4-(3-di-n-propylaminopropyl)-oxy-3-chloro-benzoyl]-indolizine]
change in vivo at 3.3 mg/kg ([2]; Canis lupus familiaris, iv, dose 3.3 mg/kg i.v., anaesthetized dog, read-out: Max. increase (blood-flow to the myocardium)): 60%
Time required to decrease to 50% (duration of effect) ([2]; dose 3.3 mg/kg i.v., anaesthetized dog): 25 min
Anti-β effect ([3]; dose 3.3 mg/kg i.v.): +++
Anti-α effect ([4]; dose 3.3 mg/kg i.v.): +++

CCCCN(CCCC)CCCOc1ccc(C(=O)c2c(CC)c(Cl)c3ccccn23)cc1Cl [Cl/Cl/H/C2H5/n-C4H9/3, 1-Chloro-2-ethyl-3-[4-(3-di-n-butylaminopropyl)-oxy-3-chloro-benzoyl]-indolizine]
LD50 [1]: 50 mg/kg
change in vivo at 1 mg/kg ([2]; Canis lupus familiaris, iv, dose 1 mg/kg i.v., anaesthetized dog, read-out: Max. increase (blood-flow to the myocardium)): 40%
Time required to decrease to 50% (duration of effect) ([2]; dose 1 mg/kg i.v., anaesthetized dog): 15 min
inhibition in vivo at 0.5 mg/kg ([3]; Canis lupus familiaris, iv, dose 0.5 mg/kg i.v.): < 50%
Anti-α effect ([4]; dose 0.5 mg/kg i.v.): +++

CCCCc1c(Cl)c2ccccn2c1C(=O)c1ccc(OCCCN(CCCC)CCCC)cc1 [Cl/H/H/n-C4H9/n-C4H9/3, 1-Chloro-2-n-butyl-3-[4-(3-di-n-butylaminopropyl)-oxy-benzoyl]-indolizine]
LD50 [1]: 50 mg/kg
change in vivo at 10 mg/kg [2, 7]: 60%
Time required to decrease to 50% (duration of effect) [2, 8]: 30 min
inhibition in vivo at 10 mg/kg [3, 9]: > 50%
Anti-α effect ([4]; dose 10 mg/kg i.v.): +++

CCCCc1cc2ccccn2c1C(=O)c1ccc(OCCCN(CCCC)CCCC)c(Br)c1 [H/Br/H/n-C4H9/n-C4H9/3, 2-n-Butyl-3-[4-(3-di-n-butylaminopropyl)-oxy-3-bromo-benzoyl]-indolizine]
LD50 [1]: 60 mg/kg
change in vivo at 5 mg/kg [2, 10]: 70%
Time required to decrease to 50% (duration of effect) [2, 11]: 60 min
inhibition in vivo at 5 mg/kg ([3]; Canis lupus familiaris, iv): > 50%
Anti-β effect ([3]; dose 10 mg/kg i.v.): +++
Anti-α effect ([4]; dose 5 mg/kg i.v.): +++
Anti-α effect ([4]; dose 10 mg/kg i.v.): +++
ED50 [5]: 170 mg/kg

CCCCc1cc2ccccn2c1C(=O)c1ccc(OCCCN(CCC)CCC)c(C)c1 [H/CH3/H/n-C4H9/n-C3H7/3, 2-n-Butyl-3-[4-(3-di-n-propylaminopropyl)-oxy-3-methyl-benzoyl]-indolizine]
LD50 [6]: > 50 mg/kg
inhibition in vivo at 5 mg/kg ([3]; Canis lupus familiaris, iv): < 50%
inhibition in vivo at 5 mg/kg ([4]; Canis lupus familiaris, iv, dose 5 mg/kg i.v.): > 50%

CCCCN(CCCC)CCCOc1c(Cl)cc(C(=O)c2c(C(C)C)cc3ccccn23)cc1Cl [H/Cl/Cl/iso-C3H7/n-C4H9/3, 2-Isopropyl-3-[4-(3-di-n-butylaminopropyl)-oxy-3,5-dichloro-benzoyl]-indolizine]
LD50 [1]: > 100 mg/kg
change in vivo at 10 mg/kg [2, 7]: 30%
Time required to decrease to 50% (duration of effect) [2, 8]: 75 min
inhibition in vivo at 10 mg/kg [3, 9]: > 50%
inhibition in vivo at 10 mg/kg [4, 9]: > 50%

CCCCN(CCCC)CCCOc1ccc(C(=O)c2c(CC)cc3ccccn23)cc1Cl [H/Cl/H/C2H5/n-C4H9/3, 2-Ethyl-3-[4-(3-di-n-butylaminopropyl)-oxy-3-chloro-benzoyl]-indolizine]
change in vivo at 6 mg/kg ([2]; Canis lupus familiaris, iv, dose 6 mg/kg i.v., anaesthetized dog, read-out: Max. increase (blood-flow to the myocardium)): 70%
Time required to decrease to 50% (duration of effect) ([2]; dose 6 mg/kg i.v., anaesthetized dog): 45 min
inhibition in vivo at 6 mg/kg ([3]; Canis lupus familiaris, iv, dose 6 mg/kg i.v.): > 50%
Anti-α effect ([4]; dose 6 mg/kg i.v.): +++

CCCN(CCC)CCCOc1ccc(C(=O)c2c(-c3cccc(Br)c3)cc3ccccn23)cc1Cl [H/Cl/H/drawing 16/n-C3H7/3]
change in vivo at 8 mg/kg ([2]; Canis lupus familiaris, iv, dose 8 mg/kg i.v., anaesthetized dog, read-out: Max. increase (blood-flow to the myocardium)): 45%
Time required to decrease to 50% (duration of effect) ([2]; dose 8 mg/kg i.v., anaesthetized dog): 25 min

CCCCN(CCCC)CCCOc1ccc(C(=O)c2c(-c3ccc(Br)cc3)cc3ccccn23)cc1Cl [H/Cl/H/drawing 20/n-C4H9/3]
change in vivo at 10 mg/kg [2, 7]: 60%
Time required to decrease to 50% (duration of effect) [2, 8]: 25 min

CCCN(CCC)CCCOc1ccc(C(=O)c2c(C(C)C)cc3ccccn23)cc1Cl [H/Cl/H/iso-C3H7/n-C3H7/3, 2-Isopropyl-3-[4-(3-di-n-propylaminopropyl)-oxy-3-chloro-benzoyl]-indolizine]
change in vivo at 5 mg/kg [2, 10]: 80%
Time required to decrease to 50% (duration of effect) [2, 11]: 90 min
inhibition in vivo at 10 mg/kg [3, 9]: > 50%
inhibition in vivo at 10 mg/kg [4, 9]: > 50%

CCCCc1cc2ccccn2c1C(=O)c1ccc(OCCCN(CCCC)CCCC)c(Cl)c1 [H/Cl/H/n-C4H9/n-C4H9/3, 2-n-Butyl-3-[4-(3-di-n-butylaminopropyl)-oxy-3-chloro-benzoyl]-indolizine]
change in vivo at 5 mg/kg [2, 10]: 75%
Time required to decrease to 50% (duration of effect) [2, 11]: 30 min
inhibition in vivo at 10 mg/kg [3, 9]: > 50%
Anti-α effect ([4]; dose 10 mg/kg i.v.): +++

CCCCN(CCCC)CCCOc1c(C)cc(C(=O)c2c(CC)c(I)c3ccccn23)cc1C [I/CH3/CH3/C2H5/n-C4H9/3, 1-Iodo-2-ethyl-3-[4-(3-di-n-butylaminopropyl)-oxy-3,5-dimethyl-benzoyl]-indolizine]
Anti-β effect ([3]; dose 10 mg/kg i.v.): +++
Anti-α effect ([4]; dose 10 mg/kg i.v.): +++
ED50 [5]: 100 mg/kg

— patent publication US4520026A, “Indolizine derivatives and use as cardiovascular agents” (S. A. Labaz N.V., priority 1982, dated 1985)
